Results on 4 compounds are retold here after patent publication US9766249B2, “Compositions and methods for prediction of drug sensitivity, resistance, and disease progression” (BioMarker Strategies, LLC, priority 2010, dated 2017).

The subject of assay [1] is SK-MEL-28. Particulars: BRAF-mut (V600E); cited from earlier work.
The next assay deals with melanoma. Particulars: phase I and II clinical trials; cited from earlier work.
Assay [2] deals with RPMI-7951. The following applies: BRAF-mut (V600E), COT Amplification; cited from earlier work.
For assay [3], the system named is SK-MEL-31. The following applies: BRAF-wt, RAS-wt; cited from earlier work.
The subject of another assay is SK-MEL-28 cells. Particulars: MEK inhibition, absence of EGF stimulation. The text has this: (§1) Protein levels measured include pAKT, pErk, pGSK3β, pP70S6k, pSTAT3, and pEGFR.
Another assay concerns SK-MEL-2. The following applies: MEK inhibition of PDGFβ stimulation.
Source text: as §1

Another assay has as its system SK-MEL-31 cells. Particulars: MEK inhibition, absence of EGF stimulation.
Source text: as §1

Assay [4] concerns SK-MEL-28. The following applies: MEK inhibition of PDGFβ stimulation.
Source text: as §1

The test system of assay [5] is RPMI-7951. In words: PDGFβ stimulation and MEK inhibition of PDGFβ stimulation (FIGS. 23 and 24). The following applies: MEK inhibition of PDGFβ stimulation. Format: cell-based.
A further assay relates to RPMI-7951 cells. In words: EGF stimulation and PLX or MEK inhibition (FIG. 35). Format: cell-based. An excerpt:
Protein levels measured include pAKT, pErk, pMEK and pEGFR.

The subject of assay [6] is Breast Cancer Cell lines (BT-474, MDA-MD-231, SKBR3, HCC-1937, BT-20, T47D, MCF-7, BT-549). The following applies: EGF 200 ng/ml with U0126 1 μM. How it is done: Breast Cancer Cell lines (BT-474, MDA-MD-231, SKBR3, HCC-1937, BT-20, T47D, MCF-7, BT-549) are propagated and removed from the plate by gentle scraping to simulate a FNA biopsy sample. Following removal, the cells were placed on the SnapPath™ live-tumor-cell processing platform (BioMarker Strategies, LLC) to evoke ex vivo biomarkers. SnapPath™ disperses the sample, enriches for tumor cells, aliquots into test wells, and applies ex vivo stimulation by EGF (200 ng/ml) in the presence or absence of the MEK inhibitor, U0126 (1 μM). Cell lysates are then analyzed using the BioPlex platform for the following phosphoproteins: p-Erk 1/2, p-AKT, p-EGFR, p-Stat3 (BioRad). Functional profiles are generated for each cell line based on the levels of phosphoproteins.

The next assay deals with SK-MEL-21. Particulars: MEK inhibition of PDGFβ stimulation.
For assay [7], the system named is RPMI-7951. Briefly: PDGFRβ activation in the absence or presence of U0126 or PLX-4702 (FIG. 36). Format: cell-based. An excerpt: (§2) Protein levels measured include pAKT, pErk, pMEK.
The test system of assay [8] is SK-MEL-28. In words: EGF stimulation in the presence of PLX-4702 or U0126 (FIGS. 33 and 34). The format is cell-based.
Source text: as §2

Assay [9] deals with Breast cancer cell lines (MCF-7, HCC-1937, MDA-MB-231, BT474, and SKBR3). In words: EGF stimulation, phosphoprotein modulation score, cell line panel. The format is cell-based. The following applies: 200 ng/ml EGF 5 minutes. How it is done: (§3) Breast cancer cell lines (MCF-7, HCC-1937, MDA-MB-231, BT474, and SKBR3) are exposed to either vehicle (control) or stimulated with 200 ng/ml epidermal growth factor (EGF) for 5 minutes then lysed and proteins extracted. Mean Fluorescence Intensity (MFI) levels of six phosphoproteins (pEGFR, pErk, pAKT, pP70S6K, pGSK3β, and pSTAT3) are determined in sextuplet using a multiplexed bead-immunoassay (BioPlex, BioRad) and a modulation score (MS), defined as the log 2 (MFI stimulated/MFI control), calculated for each. Scores are ranked by percentile relative to the median (0.66) and inter-quartile range (IQR) (1.54). Moderate responders are classified as those with MS between the 75th percentile (2.20) and the 75th percentile plus the IQR (3.74). High responders are those MS>3.74. Low responders are those MS falling between the IQR and 75th percentile (1.54-2.20) whereas non responders are classified as MS<1.54.

Assay [10] deals with SK-MEL-31. Briefly: Melanoma functional signaling profile upon EGF stimulation (FIG. 15). Format: cell-based. How it is done: (§4) Protein levels are measured for pAKT, pERK, pGSK3, p70S6K, pSTAT, pEGFR in RPMI-7951, SK-MEL 2, SK-MEL 28, and SK-MEL 31 cells. Fold changes are calculated for protein level before and after EGF stimulation.
Assay [11] concerns RPMI-7951. Described as above. Format: cell-based. The procedure:
as §4

The subject of the next assay is MCF-7 cells. Briefly: EGF stimulation, phosphoprotein modulation score (BioPlex bead-immunoassay). The format is cell-based. Particulars: 200 ng/ml EGF 5 minutes. The procedure:
as §3

The subject of a further assay is HCC-1937. The assay is described as above. Format: cell-based. Particulars: 200 ng/ml EGF 5 minutes. How it is done:
as §3

In another assay the test system is BT474. The assay is described as above. Format: cell-based. Particulars: 200 ng/ml EGF 5 minutes. How it is done:
as §3

The test system of a further assay is SKBR3. The description is as above. The following applies: 200 ng/ml EGF 5 minutes. The format is cell-based. The procedure:
as §3

“Also recorded” adds a separate entry of the source. Where two headings read alike, the source gives them in different places.

On to `CCCS(=O)(=O)Nc1ccc(F)c(C(=O)c2c[nH]c3ncc(-c4ccc(Cl)cc4)cc23)c1F` [PLX-4032], for which the results for the “PLX-4032 Phenotype” value in the assay with SK-MEL-28 [1], with RPMI-7951 [2] and in the assay on SK-MEL-31 [3] were “Sensitive”, “resistance; also recorded: Resistant” and “resistance; also recorded: Resistant”, respectively. The response rate result with melanoma is given as “remarkable response rate”.
For `N#CC(=C(/N)Sc1ccccc1N)/C(C#N)=C(\N)Sc1ccccc1N` [U0126], the pEGFR result with SK-MEL-28 cells is “activated”. The pErk result was “inhibited” in the assay with SK-MEL-28 cells; “not impacted” in the assay with SK-MEL-2; “inhibited” with SK-MEL-31 cells; “decreased” with RPMI-7951 cells (EGF stimulation, MEK inhibition). In addition, the pAkt entry with SK-MEL-31 cells is given as “upregulated”. Also, the “reduction of pErk” value in the assay on SK-MEL-28 [4], in the assay on RPMI-7951 [5] and in the assay on SK-MEL-21 was “approximately 50%” each time. In addition, the figures for the pAKT phosphorylation level result in assay [6] (another functional group) and in assay [6] (one functional group) were “unanticipated up-regulation of p-AKT” and “low levels of p-AKT inhibition”, respectively. Also, the values for the pEGFR phosphorylation level result in assay [6] (one functional group) and in assay [6] (other functional group) were “low p-EGFR inhibition” and “unanticipated up-regulation of p-EGFR”, respectively. Further, the pMEK down-regulation result in the assay with RPMI-7951 [7] (MEK inhibition) is reported as “less effective”. In addition, the pMEK result in the assay with SK-MEL-28 [8] (MEK inhibitor and EGF) is recorded as “increased”.
Turning to `CCCS(=O)(=O)Nc1ccc(F)c(C(=O)c2c[nH]c3ncc(Cl)cc23)c1F` [PLX-4702], the pMEK result in the assay on RPMI-7951 [7] (presence of PLX-4702) is reported as “down-regulated”. The pERk expression entry in the assay on SK-MEL-28 [8] (PLX inhibition plus EGF stimulation) is listed as “reduced”.
With epidermal growth factor [EGF], the EGFR-phosphorylation response class entry in [9] (all cells except BT474) is on record as “high”. The “pGSK3β MS” value in assay [9] (all five cell lines) is under 1.0. The “pP70S6K MS” value in [9] (all five cell lines) is on record as under 1.0. For the same compound, in assay [9] (markers not named individually), the “MS of all other markers across the five cell lines” value is given as under 1.54. In addition, the pErk response class result in [9] (other lines tested (not MCF-7, HCC-1937)) is “none”. For the same compound, the pEGFR entry with RPMI-7951 cells (all EGF modulation) is “dramatically increased”. The “induction of pEGFR” value in the assay on SK-MEL-31 [10] and with RPMI-7951 [11] was “highest induction” in each case. The “STAT-3 phosphorylation MS” value with MCF-7 cells amounted to 2.34. Also, the figures for the “MS for pErk” value in the assay on MCF-7 cells (MS = log 2 (MFI stimulated/MFI control)) and in the assay with HCC-1937 were 3.92 and 2.89, respectively. Also, the “EGFR-phosphorylation MS” value with BT474 was 2.57. In addition, in the assay on SKBR3, the “pAKT MS” value is 1.78.
